Read-outs that look alike come from different tables or passages of the source.

Data set [1] concerns the target T1, Human Serum Albumin (Homo sapiens, UniProt P02768). Briefly: Literature HSA binding of reference substances (Yamazaki et al.) for HSA-column calibration. The conditions noted are these: logarithmic K of human serum albumin binding. On the procedure: The mobile phase (A: NH4OAc, 50 mM in water, pH 7 and B: isopropanol) was freshly prepared for each experiment and only used for one day. The column was kept at room temperature and each run was stopped after detection of the signal to reduce the acquisition time. All substances were dissolved in a 0.5 mg/ml concentration in 50% 2-propanol and 50% 50 mM pH 6.9 ammonium acetate buffer. […] All nine reference substances (see Table 1) were injected consecutively to establish a non-linear regression with OriginPro 2016G; see FIG. 1.
HSA literature value of human serum albumin binding in [%]; Log K HAS logarithmic K of human serum albumin binding.

Data set [2] deals with T1, Human Serum Albumin. The conditions noted are these: literature value of human serum albumin binding; cited from earlier work.
Data set [3] deals with LNCaP cells. Briefly: Internalization of radiolabelled ligands into LNCaP cells. The conditions noted are these: 1 hour, % of reference ligand ([125I]I-BA)KuE. The class given is cell-based. On the procedure:
Subsequent to the removal of the culture medium, the cells were washed once with 500 μL DMEM-F12 (5% BSA) and left to equilibrate for at least 15 min at 37° C. in 200 μL DMEM-F12 (5% BSA). Each well was treated with either 25 μL of either DMEM-F12 (5% BSA) or a 100 μM PMPA solution for blockade. […] The experiment was terminated by placing the 24-well plate on ice for 3 min and consecutive removal of the medium. Each well was rinsed with 250 μL HBSS and the fractions from these first two steps combined, representing the amount of free radioligand. Removal of surface bound activity was accomplished by incubation of the cells with 250 μL of ice-cold PMPA (10 μM in PBS) solution for 5 min and rinsed again with another 250 μL of ice-cold PBS. The internalized activity was determined by incubation of the cells in 250 μL 1 M NaOH and the combination with the fraction of a subsequent wash step with 250 μL 1.0 M NaOH. Each experiment (control and blockade) was performed in triplicate. Free, surface bound and internalized activity was quantified in a γ-counter. […] Data were corrected for non-specific internalization and normalized to the specific-internalization observed for the radioiodinated reference compound.

The nature of data set [4]: Octanol-water partition coefficient (log D) of radiolabelled ligands. The class given is physicochemical. Particulars: n = 6. How it is done:
Approximately 1 MBq of the labelled tracer was dissolved in 1 mL of a 1:1 mixture (by volumes) of phosphate buffered saline (PBS, pH 7.4) and n-octanol in an Eppendorf tube. After vigorous mixing of the suspension for 3 minutes at room temperature, the vial was centrifuged at 15000 g for 3 minutes (Biofuge 15, Heraus Sepatech, Osterode, Germany) and 100 μL aliquots of both layers were measured in a gamma counter. The experiment was repeated at least six times.

Data set [5] concerns the target T2, PSMA (Homo sapiens, UniProt Q04609).
T2 construct: endogenous in cells; host or cells: LNCaP cells
In words: Determination of PSMA affinity (IC50), competition with ([125I]I-BA)KuE on LNCaP cells. The conditions noted are these: ([125I]I-BA)KuE 0.2 nM. The class given is binding. On the procedure:
After removal of the culture medium, the cells were treated once with 500 μL of HBSS (Hank's balanced salt solution, Biochrom, Berlin, Germany, with addition of 1% bovine serum albumin (BSA)) and left 15 min on ice for equilibration in 200 μL HBSS (1% BSA). […] Quantification of bound and free radioligand was accomplished in a γ-counter.

Data set [6] deals with T1, Human Serum Albumin. In words: HSA binding on Chiralpak HSA column. The class given is in vitro ADME.
The conditions of data set [7]: cited from earlier work.
[8] abbreviates: pH 7.4, 68Ga-natF-L, n-octanol/PBS pH 7.4.
Where [9] appears, read: IC50, natF-L (uncomplexed), 1 h, 4° C., mean ± SD.
Where [10] appears, read: IC50, natGa-natF-L, 1 h, 4° C., mean ± SD.
Setting [11] is: 68Ga-natF-L, 0.5 nM, 37° C., mean ± SD.
Where [12] appears, read: pH 7.4, 18F-L, n-octanol/PBS pH 7.4.
The mark [13] stands for this setting: 18F-L, 0.5 nM, 37° C., mean ± SD.
[14] abbreviates: 177Lu-natF-L, 0.5 nM, 37° C., mean ± SD.
The mark [15] stands for this setting: n-octanol/PBS, pH 7.4, 177Lu-natF-L.
The mark [16] stands for this setting: natLu-natF-L, 1 h, 4° C., mean ± SD, read-out: IC50.

T1 sequence (P02768 25-609): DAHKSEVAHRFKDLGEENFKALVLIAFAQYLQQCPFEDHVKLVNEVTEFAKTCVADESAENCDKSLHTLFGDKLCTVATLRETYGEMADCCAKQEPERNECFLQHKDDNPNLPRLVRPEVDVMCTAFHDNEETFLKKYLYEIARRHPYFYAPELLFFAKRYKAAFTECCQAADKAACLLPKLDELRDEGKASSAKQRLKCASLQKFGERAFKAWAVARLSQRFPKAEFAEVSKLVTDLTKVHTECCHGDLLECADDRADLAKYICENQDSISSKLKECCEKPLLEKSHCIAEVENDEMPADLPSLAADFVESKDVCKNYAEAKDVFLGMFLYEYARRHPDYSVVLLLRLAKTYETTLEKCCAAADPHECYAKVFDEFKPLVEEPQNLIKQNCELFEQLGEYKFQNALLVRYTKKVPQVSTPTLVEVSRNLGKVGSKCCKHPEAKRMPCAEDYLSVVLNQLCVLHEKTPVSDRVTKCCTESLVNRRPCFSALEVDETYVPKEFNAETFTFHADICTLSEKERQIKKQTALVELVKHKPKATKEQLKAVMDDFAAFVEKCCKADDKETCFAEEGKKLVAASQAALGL
T2 sequence (Q04609 whole entry): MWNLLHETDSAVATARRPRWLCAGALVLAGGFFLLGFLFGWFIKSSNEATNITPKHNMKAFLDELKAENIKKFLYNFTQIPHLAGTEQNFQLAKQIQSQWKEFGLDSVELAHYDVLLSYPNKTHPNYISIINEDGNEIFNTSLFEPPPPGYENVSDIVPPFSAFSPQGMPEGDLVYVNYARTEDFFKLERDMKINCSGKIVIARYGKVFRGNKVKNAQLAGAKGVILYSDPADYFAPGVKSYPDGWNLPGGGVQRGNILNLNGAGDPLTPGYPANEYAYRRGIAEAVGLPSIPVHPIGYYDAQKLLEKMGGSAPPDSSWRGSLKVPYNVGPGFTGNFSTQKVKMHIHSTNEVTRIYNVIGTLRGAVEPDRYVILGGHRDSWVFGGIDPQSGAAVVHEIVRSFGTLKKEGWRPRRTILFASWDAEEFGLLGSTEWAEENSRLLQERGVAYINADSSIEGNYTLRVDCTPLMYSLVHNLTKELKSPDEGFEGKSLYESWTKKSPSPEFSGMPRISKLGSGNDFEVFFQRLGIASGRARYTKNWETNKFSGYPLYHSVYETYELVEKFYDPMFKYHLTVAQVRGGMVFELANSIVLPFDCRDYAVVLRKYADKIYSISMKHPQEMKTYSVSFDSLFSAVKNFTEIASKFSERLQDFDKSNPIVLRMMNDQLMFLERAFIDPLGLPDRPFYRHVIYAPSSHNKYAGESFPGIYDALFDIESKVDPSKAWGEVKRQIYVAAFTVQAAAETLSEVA

Take `Nc1ccccc1` [Aniline]: the “Log K HSA” value in data set [1] was −0.79. Besides, in data set [2], the “Lit. HSA %” value is recorded as 14.06%.
`O=C(O)c1ccccc1` [Benzoic Acid]: the “Lit. HSA %” value in data set [2] is given as 34.27%.
Consider `O=C(O)CC[C@H](NC(=O)N[C@@H](CCCCNC(=O)c1ccc(F)nc1)C(=O)O)C(=O)O` [DCFPyL, reference compound], for which, in data set [3] (references), the Internalization result was “DCFPyL 118 ± 5%”.
For `COc1ccc(Cl)cc1C(=O)NCCc1ccc(S(=O)(=O)NC(=O)NC2CCCCC2)cc1` [Glibenclamide], the “Log K HSA” value in data set [1] is 1.69. Further, in data set [2], the “Lit. HSA %” value is 99.00%.
Consider `Oc1ccccc1` [Phenol], for which, in data set [1], the “Log K HSA” value is −0.59. Besides, the “Lit. HSA %” value in data set [2] is 20.69%.
As for `CCCN(CCC)S(=O)(=O)c1ccc(C(=O)O)cc1` [Probenecid], in data set [2], the “Lit. HSA %” value is 95.00%.
As a reminder, the logD is the decadic logarithm of the distribution of all forms, ionised or not, between an organic phase and buffer at a given pH. Usually IC50 stands for the concentration needed to halve the response being measured. `CC(C)(C)[Si](F)(c1ccc(C(=O)NC[C@@H](NC(=O)CCC(C(=O)O)N2CCN(CC(=O)O)CCN(CC(=O)O)CCN(CC(=O)O)CC2)C(=O)N[C@H](CCCCNC(=O)CCCCCCC(=O)NCCCC[C@H](NC(=O)N[C@@H](CCC(=O)O)C(=O)O)C(=O)O)C(=O)O)cc1)C(C)(C)C` (some centres unmarked) [ligand 5, PSMA-SIFA1] showed a logD in data set [4] (setting [8]) of -2.75 ± 0.07. Also, the half-maximal inhibitory concentration (IC50) in data set [5] (setting [9]) came out at 6.4 ± 0.2 nM; in data set [5] (setting [10]), 7.3 ± 0.2 nM. Also, the Internalization in data set [3] (setting [11]) is 33.0 ± 2.1%.
Consider `CC(C)(C)[Si](F)(c1ccc(C(=O)NC[C@@H](C(=O)N[C@H](CCCCNC(=O)CCCCCCC(=O)NCCCC[C@H](NC(=O)N[C@@H](CCC(=O)O)C(=O)O)C(=O)O)C(=O)O)n2cc(CNC(=O)CCP(=O)(O)CN3CCN(CP(=O)(O)CCC(=O)O)CCN(CP(=O)(O)CCC(=O)O)CC3)nn2)cc1)C(C)(C)C` [ligand 6, PSMA-SIFA2], for which the logD in data set [4] (setting [8]) was -3 ± 0.09. The IC50 in data set [5] (setting [9]) is 8.5 ± 1.7 nM; in data set [5] (setting [10]) it was 10.8 ± 2.5 nM. In addition, the Internalization in data set [3] (setting [11]) was found to be 43.0 ± 3.4%.
On to `CC(C)(C)[Si](F)(c1ccc(C(=O)N[C@H](CNC(=O)CCC(C(=O)O)N2CCN(CC(=O)O)CCN(CC(=O)O)CCN(CC(=O)O)CC2)C(=O)N[C@H](CCCCNC(=O)CCC(=O)NCCC[C@@H](NC(=O)CC[C@H](NC(=O)N[C@@H](CCC(=O)O)C(=O)O)C(=O)O)C(=O)O)C(=O)O)cc1)C(C)(C)C` (some centres unmarked) [ligand 8, PSMA-SIFA4], for which the HSA binding in data set [6] (natGa-natF-L) came to 96.5%; in data set [6] (natLu-natF-L), 97.7%. Besides, the logD in data set [4] (setting [12]) is -2.25 ± 0.07; in data set [4] (setting [8]) it was -2.59 ± 0.04; in data set [4] (pH 7.4, 177Lu-natF-L, n-octanol/PBS pH 7.4), -3.75 ± 0.06. Besides, the IC50 worked out at 2.5 ± 0.2 nM in data set [5] (setting [9]); 3.8 ± 0.7 nM in data set [5] (setting [10]); 3 ± 0.2 nM in data set [5] (IC50, natLu-natF-L, 1 h, 4° C., mean ± SD). Also, the Internalization in data set [3] (setting [13]) was 130.3 ± 5.5%; in data set [3] (setting [11]) it was 98.2 ± 12.4%; in data set [3] (setting [14]), 165.9 ± 8.5%.
In turn, `CC(C)(C)[Si](F)(c1ccc(C(=O)NC[C@@H](C(=O)N[C@H](CCCCNC(=O)CCC(=O)NCCC[C@@H](NC(=O)CC[C@H](NC(=O)N[C@@H](CCC(=O)O)C(=O)O)C(=O)O)C(=O)O)C(=O)O)n2cc(CNC(=O)CCP(=O)(O)CN3CCN(CP(=O)(O)CCC(=O)O)CCN(CP(=O)(O)CCC(=O)O)CC3)nn2)cc1)C(C)(C)C` [ligand 9, PSMA-SIFA5] had an HSA binding in data set [6] (natGa-natF-L) of 95.1%. The logD is -2.23 ± 0.07 in data set [4] (setting [12]) and -3.26 ± 0.06 in data set [4] (setting [8]). For the same compound, the IC50 was 4.3 ± 0.2 nM in data set [5] (setting [9]) and 4.5 ± 0.3 nM in data set [5] (setting [10]). For the same compound, the Internalization in data set [3] (setting [13]) is listed as 211.6 ± 5.3%; in data set [3] (setting [11]), 176.9 ± 11.7%.
`CC(C)(C)[Si](F)(c1ccc(C(=O)NCC(NC(=O)CN2CCN(CC(=O)O)CCN(CC(=O)O)CCN(CC(=O)O)CC2)C(=O)NC(CCCCNC(=O)CCC(=O)NCCCC(NC(=O)CC[C@H](NC(=O)N[C@@H](CCC(=O)O)C(=O)O)C(=O)O)C(=O)O)C(=O)O)cc1)C(C)(C)C` (some centres unmarked) [ligand 10]: in data set [6] (natLu-natF-L), the HSA binding is 94.0%. Moreover, the logD in data set [4] (setting [15]) is -3.59 ± 0.05. Also, the IC50 in data set [5] (setting [16]) came to 2.8 ± 0.7 nM. The Internalization in data set [3] (setting [14]) is 184.1 ± 16%.
As for `CC(C)(C)[Si](F)(c1ccc(C(=O)NC(CNC(=O)CN2CCN(CC(=O)O)CCN(CC(=O)O)CCN(CC(=O)O)CC2)C(=O)NC(CCCCNC(=O)CCC(=O)NCCCC(NC(=O)CC[C@H](NC(=O)N[C@@H](CCC(=O)O)C(=O)O)C(=O)O)C(=O)O)C(=O)O)cc1)C(C)(C)C` (some centres unmarked) [ligand 11], the HSA binding in data set [6] (natLu-natF-L) is recorded as 92.4%. Further, the logD in data set [4] (setting [15]) was -3.62 ± 0.06. Further, the IC50 in data set [5] (setting [16]) came to 4.8 ± 0.7 nM. Besides, in data set [3] (setting [14]), the Internalization is 134.5 ± 18.5%.
Take PSMA-1007 [reference compound]: the concentration for half-maximal inhibition (IC50) in data set [5] (references, read-out: IC50) stood at 4.2 nM. The Internalization entry in data set [3] (references) is recorded as “PSMA-1007 118 ± 4%”.
For “SIFA-Asn(AcNH-β-Glc)-PEG-Tyr^3-octreotate”, in data set [7], the “log P(ow)” value is reported as 0.96.
Take SIFA-Asn(AcNH-β-Glc)-Tyr^3-octreotate: in data set [7], the “log P(ow)” value is on record as 1.23.
